Test system: spinal cord transcriptome
Experiment: RNA-Seq of spinal cord tissue from 2B/- and 2B/+ mice
Assay type: in vivo, mouse
Settings: 2B-Veh vs 2B-RG3039

## Nc1nc(N)c2c(OCC3CCN(Cc4c(Cl)cccc4Cl)CC3)cccc2n1 [RG3039]
  log2(fold-change) Slc16a3: -0.7903
  log2(fold-change) Slc16a9: -0.6931
  log2(fold-change) Slc24a4: -0.7011
  log2(fold-change) Slc25a34: -1.809
  log2(fold-change) Slc38a5: 1.057
  log2(fold-change) Slc43a2: -0.4622
  log2(fold-change) Smim3: -1.398
  log2(fold-change) Sox7: 0.9813
  log2(fold-change) Sspo: -0.7538
  log2(fold-change) Steap3: 0.5769
  log2(fold-change) Sult1a1: -1.637
  log2(fold-change) T2: -0.674
  log2(fold-change) Thbd: 0.6475
  log2(fold-change) Tjap1: -0.5932
  log2(fold-change) Tmem52: -2.209
  log2(fold-change) Tmem82: -2.075
  log2(fold-change) Tnc: 1.175
  log2(fold-change) Tnfrsf11b: 0.7466
  log2(fold-change) Tnfsf10: 1.316
  log2(fold-change) Top2a: 0.5734
  log2(fold-change) Trim17: -0.4978
  log2(fold-change) Trim63: -1.544
  log2(fold-change) Txnip: -1.514
  log2(fold-change) Ube2c: 0.4464
  log2(fold-change) Uhrf1: 0.8234
  log2(fold-change) Vegfc: 0.6909
  log2(fold-change) Wfdc18: -1.041
  log2(fold-change) Wnt7a: 1.48
  log2(fold-change) Zbtb16: -1.136
  log2(fold-change) Zfand4: -0.6603
Gene 1110032A03Rik
  log2(fold-change): -0.2821
Gene Acsbg1
  log2(fold-change): -0.2673
Gene Adam15
  log2(fold-change): -0.3484
Gene Adi1
  log2(fold-change): -0.4121
Gene Adra1b
  log2(fold-change): 0.2729
Gene Aff1
  log2(fold-change): -0.2665
Gene Ak3
  log2(fold-change): -0.3763
Gene Aldh1l1
  log2(fold-change): -0.3854
Gene Aldoc
  log2(fold-change): -0.3499
Gene Amz1
  log2(fold-change): 0.2752
Gene Ap5z1
  log2(fold-change): -0.356
Gene Aqp11
  log2(fold-change): -0.2575
Gene Arsk
  log2(fold-change): -0.2986
Gene B3gnt9
  log2(fold-change): -0.2654
Gene Bahd1
  log2(fold-change): 0.2771
Gene Boc
  log2(fold-change): -0.2865
Gene Calr
  log2(fold-change): 0.1683
Gene Ccdc41os1
  log2(fold-change): -0.2491
Gene Ccdc117
  log2(fold-change): 0.2458
Gene Ccnyl1
  log2(fold-change): 0.3378
Gene Cdc25a
  log2(fold-change): 0.2456
Gene Clmp
  log2(fold-change): 0.2336
Gene Cntfr
  log2(fold-change): -0.3422
Gene Col9a3
  log2(fold-change): 0.1971
Gene Cpt1c
  log2(fold-change): -0.278
Gene Crabp1
  log2(fold-change): 0.2782
Gene Cryz
  log2(fold-change): -0.1892
Gene Daam2
  log2(fold-change): -0.2024
Gene Darc
  log2(fold-change): 0.1786
Gene Decr1
  log2(fold-change): -0.3016
Gene Dnm2
  log2(fold-change): -0.2166
Gene Efnb3
  log2(fold-change): -0.3581
Gene Elmo2
  log2(fold-change): 0.364
Gene Eltd1
  log2(fold-change): -0.2627
Gene Fkbp10
  log2(fold-change): 0.3165
Gene Fmnl3
  log2(fold-change): 0.3298
Gene Foxo3
  log2(fold-change): -0.2832
Gene Gpt2
  log2(fold-change): -0.2642
Gene Gstt1
  log2(fold-change): -0.358
Gene Hapln2
  log2(fold-change): -0.2887
Gene Hmgcr
  log2(fold-change): 0.3374
Gene Hopx
  log2(fold-change): 0.2486
Gene Hsdl2
  log2(fold-change): -0.1941
Gene Itfg3
  log2(fold-change): -0.4076
Gene Ivd
  log2(fold-change): -0.3584
Gene Kctd3
  log2(fold-change): -0.3771
Gene Kctd15
  log2(fold-change): 0.2608
Gene Kpna2
  log2(fold-change): 0.269
Gene Lpcat1
  log2(fold-change): 0.2395
Gene Lrrc1
  log2(fold-change): -0.4303
Gene Lxn
  log2(fold-change): 0.285
Gene Maged2
  log2(fold-change): 0.2097
Gene Megf9
  log2(fold-change): -0.283
Gene Megf11
  log2(fold-change): 0.3115
Gene Mmp15
  log2(fold-change): 0.2397
Gene Msi1
  log2(fold-change): 0.3899
Gene Mterfd3
  log2(fold-change): -0.3526
Gene Ngef
  log2(fold-change): 0.3246
Gene Nid1
  log2(fold-change): 0.3048
Gene Npl
  log2(fold-change): 0.2963
Gene Nr2f1
  log2(fold-change): 0.3426
Gene Nrbp2
  log2(fold-change): -0.2827
Gene Nrep
  log2(fold-change): 0.3402

Source: paper PMC5612656, “In vitro and in vivo effects of 2,4 diaminoquinazoline inhibitors of the decapping scavenger enzyme DcpS: Context-specific modulation of SMN transcript levels” (PLoS ONE, 2017)
